{"source": "patent US10752591B2", "about": "“18-20 member bi-polycyclic compounds” (Haro Pharmaceutical Inc., priority 2014, dated 2020)", "key": {"C2Cl2 cells": {"tested_on": "C2Cl2 cells", "experiment": "myoblast fusion in long term C2Cl2 cultures (MHC immunocytochemistry)", "format": "cell-based", "conditions": "long-term culture, suboptimal RPMI media with 2% horse serum", "experimental": "The effect of compounds on myoblast fusion was examined in C2Cl2 cells maintained in RPMI media supplemented with 2% horse serum. C2Cl2 myoblastic cells where purchased from the American Type Culture Collection (ATCC) and maintained undifferentiated in RPMI media (Corning) supplemented with 2 mM L-Alanine-L-Glutamine (ATCC) and 1 mM pyruvate (Corning). Undifferentiated cells where maintained below 70% confluence. For long term cultures and compound treatment, cells where plated at high density CellBIND Culture Dishes (corning 3294, 3296, 3337) and in RPMI supplemented with 2% Horse Serum (Gibco) and 2 mM L-Alanine-L-Glutamine (ATCC) and 1 mM pyruvate (Corning). Compounds were dissolved in DMSO at 1000 time the final concentration and diluted 1-in-1000 in the media covering the cells. Media and compounds were changed daily. For immunocytochemistry, cells were fixed in 2% PFA in HBSS for 10 minutes and left in HBSS at 4° under humidified atmosphere and processed for immunocytochemistry. For myosin heavy chain detection (MHC), cells were first incubated in 100 ul-1 ml 0.15 M Glycine in DPBS for 10 minutes, rinse with DPBS. 100 ul-1 ml 0.5% Triton-X in DPBS was added for 10 minutes, rinsed with DPBS, and followed by incubation with 100 ul blocking agent (10% goat serum in DPBS) for 30 min at room temperature. MF20 primary antibody in 10% goat serum in DPBS was added at 1/60 dilution for 30 min at room temperature and rinsed three times with 100 ul DPBS. IgG2b goat anti mouse secondary antibody (Jackson Immuno-Research) was added at 1:1000 in 10% goat serum in DPBS for exactly 30 min at room temperature then rinsed 3 times with 100 ul DPBS. A final rinse in H2O was performed and cells were covered with two drops of Elvanol and cover gently with cover slip and allowed to dry in the dark for 24-48 hours."}, "RXR": {"tested_on": "RXR", "experiment": "RXR-mediated transcription, RXRE luciferase reporter in MCF7 cells", "format": "cell-based", "source_text": "The effect of various compounds of the invention on RAR-mediated transcription in MCF7 breast cancer cells was examined by measuring their effect on the transcription of a luciferase reporter gene under the control of a TK promoter placed downstream of a RAR response element. In addition, the effect of the compounds on the closely related RXR-mediated transcription was examined by measuring their effect on the transcription of a luciferase reporter gene under the control of a TK promoter placed downstream of a RXR response element.\nTypically, 10,000 cells were plated in 96 wells plates in phenol red-free RPMI medium supplemented with 10% charcoal-stripped Fetal Bovine Serum. After 24 hours, cells were transfected with 0.1 μg of luciferase reporter plasmid and 0.01 μg of a reporter plasmid expressing renilla luciferase (RLuc) gene under the control of a SV40 promoter, using Fugene 6 transfection reagent (0.5 μl/well Promega Corporation). Cells were treated in triplicate with compounds or vehicle (DMSO) for 24 hours. Luciferase and renilla luciferase activities were measured using Dual-Glo reagent (Promega Corporation). Luciferase activity was normalized in each well for renilla activity."}, "[1]": {"target": "T1, purified recombinant human HDAC-6 (Homo sapiens, UniProt Q9UBN7)", "T1 construct": "purchased Cayman Chem 10009465", "T1 sequence (Q9UBN7 1-1215)": "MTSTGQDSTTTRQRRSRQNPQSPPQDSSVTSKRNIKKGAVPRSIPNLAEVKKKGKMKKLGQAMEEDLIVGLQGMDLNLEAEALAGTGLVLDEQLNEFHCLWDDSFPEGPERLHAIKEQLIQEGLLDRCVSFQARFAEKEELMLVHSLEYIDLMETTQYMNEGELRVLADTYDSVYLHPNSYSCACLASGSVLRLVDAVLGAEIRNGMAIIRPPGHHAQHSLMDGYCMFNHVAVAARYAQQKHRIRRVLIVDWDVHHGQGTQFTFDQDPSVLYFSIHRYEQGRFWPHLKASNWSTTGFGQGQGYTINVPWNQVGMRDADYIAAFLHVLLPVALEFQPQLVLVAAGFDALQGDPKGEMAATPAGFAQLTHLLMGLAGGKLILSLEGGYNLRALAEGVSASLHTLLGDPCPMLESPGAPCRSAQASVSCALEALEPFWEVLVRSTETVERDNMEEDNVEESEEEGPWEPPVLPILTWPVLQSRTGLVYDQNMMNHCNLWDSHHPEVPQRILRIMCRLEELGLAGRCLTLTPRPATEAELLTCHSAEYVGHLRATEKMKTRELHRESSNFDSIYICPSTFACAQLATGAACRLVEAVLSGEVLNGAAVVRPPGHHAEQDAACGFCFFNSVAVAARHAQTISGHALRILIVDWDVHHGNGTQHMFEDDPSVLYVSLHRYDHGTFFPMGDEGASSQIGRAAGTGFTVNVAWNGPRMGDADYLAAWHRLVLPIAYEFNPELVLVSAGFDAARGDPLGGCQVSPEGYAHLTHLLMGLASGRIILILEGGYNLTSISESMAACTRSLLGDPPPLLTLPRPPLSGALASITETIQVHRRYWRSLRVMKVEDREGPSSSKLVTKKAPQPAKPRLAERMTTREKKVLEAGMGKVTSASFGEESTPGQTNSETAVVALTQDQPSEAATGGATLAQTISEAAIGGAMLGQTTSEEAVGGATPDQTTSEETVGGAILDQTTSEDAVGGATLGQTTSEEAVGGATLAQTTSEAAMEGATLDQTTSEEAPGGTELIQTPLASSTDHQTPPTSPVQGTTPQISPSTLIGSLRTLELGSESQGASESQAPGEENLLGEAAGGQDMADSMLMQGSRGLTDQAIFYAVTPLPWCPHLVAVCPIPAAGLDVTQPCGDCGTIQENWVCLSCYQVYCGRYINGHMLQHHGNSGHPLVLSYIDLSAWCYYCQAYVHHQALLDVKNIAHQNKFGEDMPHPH", "experiment": "HDAC-6 enzymatic inhibition (AMC fluorogenic peptide deacetylation)", "format": "biochemical", "conditions": "relative to compound 17", "experimental": "The effect of compounds on the enzymatic activity of purified recombinant human HDAC-1, -2, -3, -6, and -8 activity and of purified rat liver HDAC was examined by measuring the deacetylation of synthetic peptides in various preparations of HDACs. HDAC assays were performed using a two-step enzymatic reaction where enzyme activity is correlated to the release of […] (AMC). AMC fluorescence is measured in a fluorescent plate reading using λex380 nm and λen440 nm.\nThe reaction was allowed to proceed for 40 min at 37° C., after which developer solution (0.5% trypsin, 10 μM trichostatin A (TSA)) was added to obtain a final concentration of 0.1% trypsin, 2 μM TSA. After 30 minutes at room temperature, the amount of free fluorogenic AMC was measured as described above."}}, "data": [{"compound": "CC1(C)CCC(C)(C)c2cc(-c3cc4cc(C(=O)NO)ccc4[nH]3)ccc21", "note": "[Compound 13]", "values": [{"measurement": "fusion of single cells into multinucleated C2Cl2 myotubes", "setting": "C2Cl2 cells", "result": "enhances the fusion"}, {"measurement": "transcriptional activation of RXR / RXRE-promoter", "setting": "RXR", "result": "none"}, {"measurement": "fold more potent than compound 17 in HDAC-6 inhibition", "setting": "[1]", "result": "at least 50"}]}]}
